Laboratory results taken from paper PMC12000319, “Proton conductance by human uncoupling protein 1 is inhibited by purine and pyrimidine nucleotides” (The EMBO Journal, 2025).
Several values for one entry are separate records, joined by “and”; a condition that tells them apart may be missing. Identical values can stand only once. Like-named read-outs stand apart in the source and are kept apart here.

Assays:
UCP1 [1] = biological target: T1, UCP1 (Homo sapiens, UniProt P25874); test: Differential scanning fluorimetry (nanoDSF) thermal stability shift assay; assay type: binding
T1 construct: His8 (N, cleaved yes); Factor Xa protease cleavage site (N, cleaved yes); made in house; host or cells: Saccharomyces cerevisiae strain W303.1B
T1 sequence (P25874 1-307): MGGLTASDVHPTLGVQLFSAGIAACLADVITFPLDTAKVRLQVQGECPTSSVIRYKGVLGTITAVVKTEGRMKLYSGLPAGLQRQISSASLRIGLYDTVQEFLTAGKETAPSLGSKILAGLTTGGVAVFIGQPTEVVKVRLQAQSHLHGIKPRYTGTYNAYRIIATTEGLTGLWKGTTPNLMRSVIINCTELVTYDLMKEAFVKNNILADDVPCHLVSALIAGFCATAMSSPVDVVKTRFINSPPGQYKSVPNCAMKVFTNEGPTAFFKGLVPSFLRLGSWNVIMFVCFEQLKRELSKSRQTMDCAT

human OGC (SLC25A11) = biological target: T2, human OGC (SLC25A11) (Homo sapiens, UniProt Q02978); test: as above; assay type: binding; details: 1 mM nucleotide, pH 6.0, single repeats (source data Fig. 4A)
T2 construct: His8 (N, cleaved yes); Factor Xa protease cleavage site (N, cleaved yes); made in house; host or cells: Saccharomyces cerevisiae strain W303.1B
T2 sequence (Q02978 1-314): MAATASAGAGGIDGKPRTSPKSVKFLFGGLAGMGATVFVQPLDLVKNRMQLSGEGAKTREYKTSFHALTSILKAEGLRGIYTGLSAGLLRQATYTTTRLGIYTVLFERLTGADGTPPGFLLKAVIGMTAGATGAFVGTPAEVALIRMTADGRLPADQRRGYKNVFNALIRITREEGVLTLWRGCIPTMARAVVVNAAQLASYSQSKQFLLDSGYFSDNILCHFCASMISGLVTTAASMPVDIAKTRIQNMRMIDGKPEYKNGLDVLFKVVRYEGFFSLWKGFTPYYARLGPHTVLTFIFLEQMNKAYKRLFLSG
From the text: UCP1 is phylogenetically related to mitochondrial dicarboxylate carriers, gaining thermogenic properties as a later evolutionary development (Hughes et al, [2009]; Robinson et al, [2008]). The mitochondrial dicarboxylate carrier (DIC, SLC25A10) and oxoglutarate carrier (OGC, SLC25A11) are most closely related to UCP1 (Gaudry et al, [2019]; Hughes et al, [2009]) and share many residues involved in nucleotide binding in UCP1, such as the arginine triplet at the contact points, R92 and Q85 (Jones et al, [2024]). Given the similarity of the central cavity of UCP1, OGC and DIC, we tested whether the dicarboxylate carriers have the ability to bind nucleotides. For this purpose, we purified human DIC and OGC, and tested whether nucleotides were able to generate a thermostability shift, as observed for their physiological substrates (Pyrihová et al, [2024]). However, all tested nucleotides caused a negligible shift with both DIC or OGC at all pH values tested between 6.0 and 8.0 (Fig. 4A; Appendix Fig. S5). Thus, despite having many residues in common (Fig. 4B–D), UCP1 has evolved to have a few specific residues that allow high-affinity binding of nucleotides without a strong selection for nucleobase.
Differential scanning fluorimetry (nanoDSF) (Alexandrov et al, [2008]) was carried out with 2 µg UCP1, DIC or OGC protein (100 mM MES/HEPES, pH range 6.0–8.0, 25 mM NaCl, 1 mM TCEP, 0.01% lauryl maltose neopentyl glycol and 0.01 mg/mL tetraoleoyl cardiolipin) and, when required, 1 mM nucleotide, as indicated. The proteins have the following number of tryptophans: UCP1 (two); OGC (two); DIC (one). The samples were loaded into nanoDSF-grade standard glass capillaries. The temperature was increased by […] every minute from 25 to 95 °C, the intrinsic fluorescence was measured in a Prometheus NT.48 nanoDSF device, and the apparent Tm was calculated with the PR.ThermControl software (NanoTemper Technologies).

UCP1 [2] = biological target: T1, UCP1; test: Isothermal titration calorimetry of nucleotide binding; design: isotherm data point (enthalpy change per injection): unit not given here; details: for isotherm data point (enthalpy change per injection): representative isotherm;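 for all read-outs here: purified human UCP1 in cacodylate buffer with lauryl maltose neopentyl glycol and cardiolipin, titrated with nucleotides, isotherms fitted by one-site model yielding ΔH, Kd and stoichiometry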
UCP1 [3] = biological target: T1, UCP1; test: Liposome reconstitution and proton conductance assay (pyranine fluorescence); assay type: biochemical; details: UCP1 proteoliposomes, 200 µM oleic acid + 500 µM nucleotide, 2.5 µM valinomycin; single reconstitutions

In the case of `Cc1cn([C@H]2C[C@H](O)[C@@H](COP(=O)(O)OP(=O)(O)OP(=O)(O)O)O2)c(=O)[nH]c1=O` [dTTP, thymidine triphosphate], the “difference in ΔTm versus GTP” value (UCP1 [1]; 1 mM nucleotide, pH 6.0) is reported as 2.7 °C, the “temperature shift (ΔTm)” value (UCP1 [1]; 1 mM nucleotide, pH 6.0, detergent-solubilised UCP1, mean of three biological repeats) is reported as 18.9 °C and the ΔTm at 1000 µM (UCP1 [1]; pH 6, read-out: thermal shift (ΔTm), 1 mM nucleotide, pH 6.0, single repeats (source data Fig. 1D)) is reported as 19 °C. The ΔTm at 1000 µM (UCP1 [1]; pH 6.5, read-out: thermal shift (ΔTm), 1 mM nucleotide, pH 6.5, single repeats (source data Fig. 1D)) was 14.8 °C, the ΔTm at 1000 µM (UCP1 [1]; pH 7, read-out: thermal shift (ΔTm), 1 mM nucleotide, pH 7.0, single repeats (source data Fig. 1D)) was 10.1 °C and the ΔTm at 1000 µM (UCP1 [1]; pH 7.5, read-out: thermal shift (ΔTm), 1 mM nucleotide, pH 7.5, single repeats (source data Fig. 1D)) was 4 °C. For the same compound, the “change in apparent melting temperature (ΔTm) of hOGC” value (human OGC (SLC25A11)) was 0.5 and 0.3, the “binding affinity to UCP1 (in words)” value (UCP1 [2]; ITC) was “highest binding affinities” and the Kd (UCP1 [2]; ITC, pH 6.0, 20 °C, mean ± standard deviation of three biological repeats (Fig. 2A-E)) was 1130 ± 90 nM. For the same compound, the Kd (UCP1 [2]; ITC, single biological repeats (source data Fig. 2F)) was 1240 nM and 1090 nM and 1070 nM, the “isotherm data point (enthalpy change per injection)” value (UCP1 [2]; Molar ratio (Nucleotide/UCP) 0.120417, pH 6.0, 20 °C) was -22.0628 and the “isotherm data point (enthalpy change per injection)” value (UCP1 [2]; Molar ratio (Nucleotide/UCP) 0.181226, pH 6.0, 20 °C) was -22.1545. For the same compound, the “isotherm data point (enthalpy change per injection)” value (UCP1 [2]; Molar ratio (Nucleotide/UCP) 0.242439, pH 6.0, 20 °C) was -21.2571, the “isotherm data point (enthalpy change per injection)” value (UCP1 [2]; Molar ratio (Nucleotide/UCP) 0.304059, pH 6.0, 20 °C) was -20.8684 and the “isotherm data point (enthalpy change per injection)” value (UCP1 [2]; Molar ratio (Nucleotide/UCP) 0.366087, pH 6.0, 20 °C) was -22.682. For the same compound, the “isotherm data point (enthalpy change per injection)” value (UCP1 [2]; Molar ratio (Nucleotide/UCP) 0.428528, pH 6.0, 20 °C) was -21.6485, the “isotherm data point (enthalpy change per injection)” value (UCP1 [2]; Molar ratio (Nucleotide/UCP) 0.491383, pH 6.0, 20 °C) was -18.3951 and the “isotherm data point (enthalpy change per injection)” value (UCP1 [2]; Molar ratio (Nucleotide/UCP) 0.554656, pH 6.0, 20 °C) was -20.6625. For the same compound, the “isotherm data point (enthalpy change per injection)” value (UCP1 [2]; Molar ratio (Nucleotide/UCP) 0.618348, pH 6.0, 20 °C) was -18.8854, the “isotherm data point (enthalpy change per injection)” value (UCP1 [2]; Molar ratio (Nucleotide/UCP) 0.682464, pH 6.0, 20 °C) was -18.4581 and the “isotherm data point (enthalpy change per injection)” value (UCP1 [2]; Molar ratio (Nucleotide/UCP) 0.747006, pH 6.0, 20 °C) was -16.8767. The “isotherm data point (enthalpy change per injection)” value (UCP1 [2]; Molar ratio (Nucleotide/UCP) 0.811976, pH 6.0, 20 °C) was -15.5439, the “isotherm data point (enthalpy change per injection)” value (UCP1 [2]; Molar ratio (Nucleotide/UCP) 0.877378, pH 6.0, 20 °C) was -14.5814 and the “isotherm data point (enthalpy change per injection)” value (UCP1 [2]; Molar ratio (Nucleotide/UCP) 0.943214, pH 6.0, 20 °C) was -11.542. The “isotherm data point (enthalpy change per injection)” value (UCP1 [2]; Molar ratio (Nucleotide/UCP) 1.00949, pH 6.0, 20 °C) was -9.131, the “isotherm data point (enthalpy change per injection)” value (UCP1 [2]; Molar ratio (Nucleotide/UCP) 1.0762, pH 6.0, 20 °C) was -6.9461 and the “isotherm data point (enthalpy change per injection)” value (UCP1 [2]; Molar ratio (Nucleotide/UCP) 1.14336, pH 6.0, 20 °C) was -4.409. The “isotherm data point (enthalpy change per injection)” value (UCP1 [2]; Molar ratio (Nucleotide/UCP) 1.21096, pH 6.0, 20 °C) was -2.755, the “isotherm data point (enthalpy change per injection)” value (UCP1 [2]; Molar ratio (Nucleotide/UCP) 1.27901, pH 6.0, 20 °C) was -1.022 and the “isotherm data point (enthalpy change per injection)” value (UCP1 [2]; Molar ratio (Nucleotide/UCP) 1.34751, pH 6.0, 20 °C) was -0.7829. For the same compound, the “isotherm data point (enthalpy change per injection)” value (UCP1 [2]; Molar ratio (Nucleotide/UCP) 1.41647, pH 6.0, 20 °C) was -1.325, the “isotherm data point (enthalpy change per injection)” value (UCP1 [2]; Molar ratio (Nucleotide/UCP) 1.48589, pH 6.0, 20 °C) was -0.8361 and the “isotherm data point (enthalpy change per injection)” value (UCP1 [2]; Molar ratio (Nucleotide/UCP) 1.55577, pH 6.0, 20 °C) was 0.501. The “isotherm data point (enthalpy change per injection)” value (UCP1 [2]; Molar ratio (Nucleotide/UCP) 1.62611, pH 6.0, 20 °C) was 0.6153, the “isotherm data point (enthalpy change per injection)” value (UCP1 [2]; Molar ratio (Nucleotide/UCP) 1.69692, pH 6.0, 20 °C) was 0.02513 and the “isotherm data point (enthalpy change per injection)” value (UCP1 [2]; Molar ratio (Nucleotide/UCP) 1.76819, pH 6.0, 20 °C) was -0.2521. For the same compound, the “isotherm data point (enthalpy change per injection)” value (UCP1 [2]; Molar ratio (Nucleotide/UCP) 1.83995, pH 6.0, 20 °C) was 0.8236, the “isotherm data point (enthalpy change per injection)” value (UCP1 [2]; Molar ratio (Nucleotide/UCP) 1.91217, pH 6.0, 20 °C) was 0.03383 and the “isotherm data point (enthalpy change per injection)” value (UCP1 [2]; Molar ratio (Nucleotide/UCP) 1.98488, pH 6.0, 20 °C) was 0.2054. For the same compound, the Proton influx rate (UCP1 [3]) was 84.11 nmol H+/min and 42.34 nmol H+/min and 68.93 nmol H+/min.
